Measurements as given in PubChem BioAssay (NCI).
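Following 48 hours of exposure in 96-well plates, responses at five concentrations were used to interpolate endpoints linearly. Definition used: TGI = concentration required for complete inhibition of growth.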

How the values were obtained:
Assay in all cases: DTP human tumour cell line panel, 48 h
[1] = test system: 786-0 renal
[2] = test system: A498 renal
[3] = test system: A549 NSCLC
[4] = test system: ACHN renal
[5] = test system: BT-549 breast
[6] = test system: CAKI-1 renal
[7] = test system: CCRF-CEM leukemia
[8] = test system: COLO 205 colon
[9] = test system: DU-145 prostate
[10] = test system: HCC-2998 colon
[11] = test system: HCT-116 colon
[12] = test system: HCT-15 colon
[13] = test system: HL-60(TB) leukemia
[14] = test system: HOP-62 NSCLC
[15] = test system: HOP-92 NSCLC
[16] = test system: HT29 colon
[17] = test system: IGROV1 ovarian
[18] = test system: K-562 leukemia
[19] = test system: KM12 colon
[20] = test system: LOX IMVI melanoma
[21] = test system: M14 melanoma
[22] = test system: MALME-3M melanoma
[23] = test system: MCF7 breast
[24] = test system: MDA-MB-231 breast
[25] = test system: MDA-MB-435
[26] = test system: MDA-N
[27] = test system: MOLT-4 leukemia
[28] = test system: NCI-H226 lung
[29] = test system: NCI-H23 lung
[30] = test system: NCI-H460 lung
[31] = test system: NCI/ADR-RES ovarian
[32] = test system: OVCAR-3 ovarian
[33] = test system: OVCAR-4 ovarian
[34] = test system: OVCAR-5 ovarian
[35] = test system: OVCAR-8 ovarian
[36] = test system: PC-3 prostate
[37] = test system: RPMI-8226 leukemia
[38] = test system: RXF 393 renal
[39] = test system: SF-268 CNS
[40] = test system: SF-295 CNS
[41] = test system: SF-539 CNS
[42] = test system: SK-MEL-2 melanoma
[43] = test system: SK-MEL-28 melanoma
[44] = test system: SK-MEL-5 melanoma
[45] = test system: SK-OV-3 ovarian
[46] = test system: SN12C renal
[47] = test system: SNB-19 CNS
[48] = test system: SR leukemia
[49] = test system: SW-620 colon
[50] = test system: T-47D breast
[51] = test system: TK-10 renal
[52] = test system: U251 CNS
[53] = test system: UACC-257 melanoma
[54] = test system: UO-31 renal
[55] = test system: EKVX NSCLC
[56] = test system: NCI-H522 lung
[57] = test system: SNB-75 CNS
[58] = test system: UACC-62 melanoma

## C[C@]12CCC3c4ccc(O)cc4CC[C@H]3C1CC(=O)NC2=O (some centres undefined)
[1]
  TGI: > 10 µM
[2]
  TGI: > 10 µM
[3]
  TGI: > 10 µM
[4]
  TGI: > 10 µM
[5]
  TGI: > 10 µM
[6]
  TGI: > 10 µM
[7]
  TGI: > 10 µM
[8]
  TGI: > 10 µM
[9]
  TGI: > 10 µM
[10]
  TGI: > 10 µM
[11]
  TGI: > 10 µM
[12]
  TGI: > 10 µM
[13]
  TGI: > 10 µM
[14]
  TGI: > 10 µM
[15]
  TGI: > 10 µM
[16]
  TGI: > 10 µM
[17]
  TGI: > 10 µM
[18]
  TGI: > 10 µM
[19]
  TGI: > 10 µM
[20]
  TGI: > 10 µM
[21]
  TGI: > 10 µM
[22]
  TGI: > 10 µM
[23]
  TGI: > 10 µM
[24]
  TGI: > 10 µM
[25]
  TGI: > 10 µM
[26]
  TGI: > 10 µM
[27]
  TGI: > 10 µM
[28]
  TGI: > 10 µM
[29]
  TGI: > 10 µM
[30]
  TGI: > 10 µM
[31]
  TGI: > 10 µM
[32]
  TGI: > 10 µM
[33]
  TGI: > 10 µM
[34]
  TGI: > 10 µM
[35]
  TGI: > 10 µM
[36]
  TGI: > 10 µM
[37]
  TGI: > 10 µM
[38]
  TGI: > 10 µM
[39]
  TGI: > 10 µM
[40]
  TGI: > 10 µM
[41]
  TGI: > 10 µM
[42]
  TGI: > 10 µM
[43]
  TGI: > 10 µM
[44]
  TGI: > 10 µM
[45]
  TGI: > 10 µM
[46]
  TGI: > 10 µM
[47]
  TGI: > 10 µM
[48]
  TGI: > 10 µM
[49]
  TGI: > 10 µM
[50]
  TGI: > 10 µM
[51]
  TGI: > 10 µM
[52]
  TGI: > 10 µM
[53]
  TGI: > 10 µM
[54]
  TGI: > 10 µM

## COc1ccc2c(C)cc(C)nc2n1
[1]
  TGI: > 100 µM
[2]
  TGI: > 100 µM
[3]
  TGI: > 100 µM
[4]
  TGI: > 100 µM
[5]
  TGI: > 100 µM
[6]
  TGI: > 100 µM
[7]
  TGI: > 100 µM
[8]
  TGI: > 100 µM
[9]
  TGI: > 100 µM
[55]
  TGI: > 100 µM
[10]
  TGI: > 100 µM
[11]
  TGI: > 100 µM
[12]
  TGI: > 100 µM
[13]
  TGI: > 100 µM
[14]
  TGI: > 100 µM
[15]
  TGI: > 100 µM
[16]
  TGI: > 100 µM
[17]
  TGI: > 100 µM
[18]
  TGI: > 100 µM
[19]
  TGI: > 100 µM
[20]
  TGI: > 100 µM
[21]
  TGI: > 100 µM
[22]
  TGI: > 100 µM
[23]
  TGI: > 100 µM
[24]
  TGI: > 100 µM
[25]
  TGI: > 100 µM
[26]
  TGI: > 100 µM
[27]
  TGI: > 100 µM
[29]
  TGI: > 100 µM
[30]
  TGI: > 100 µM
[56]
  TGI: > 100 µM
[31]
  TGI: > 100 µM
[32]
  TGI: > 100 µM
[33]
  TGI: > 100 µM
[34]
  TGI: > 100 µM
[35]
  TGI: > 100 µM
[36]
  TGI: > 100 µM
[37]
  TGI: > 100 µM
[38]
  TGI: > 100 µM
[40]
  TGI: > 100 µM
[42]
  TGI: > 100 µM
[43]
  TGI: > 100 µM
[44]
  TGI: > 100 µM
[45]
  TGI: > 100 µM
[46]
  TGI: > 100 µM
[47]
  TGI: > 100 µM
[57]
  TGI: > 100 µM
[48]
  TGI: > 100 µM
[49]
  TGI: > 100 µM
[50]
  TGI: > 100 µM
[51]
  TGI: > 100 µM
[52]
  TGI: > 100 µM
[53]
  TGI: > 100 µM
[58]
  TGI: > 100 µM
[54]
  TGI: > 100 µM
